From patent publication US8901118B2, “Compounds and methods for kinase modulation, and indications therefor” (Plexxikon Inc., priority 2010, dated 2014)

How the values were obtained:
SKNSH cells = assay: SKNSH (human neuroblastoma) cell proliferation assay (ATPlite); assay type: cell-based; details: SK-N-SH, read-out: Inhibition of Cell Proliferation IC50, SKNSH
Protocol: Compounds are assessed in a variety of cell based assays. For example BaF3 cells engineered with any of BCR-FMS, BCR-KIT, BCR-FLT3, BCR-NTRK1, BCR-NTRK2, and BCR-NTRK3, are used in cell proliferation assays to assess inhibitory activity of Fms, Kit, Flt-3, TrkA, TrkB, and TrkC, respectively. An MV-4-11 (leukemia) cell proliferation assay is used to assess inhibitory activity in Flt-3, and SKNSH (human neuroblastoma) cell proliferation assay is used to assess efficacy of Fms/Trk inhibitors. Additional cells may be assayed similarly to assess the efficacy of Fms/Trk inhibitors, such as MiaPaCa (human pancreatic cancer) and Capan-1 (human pancreatic carcinoma) cells. Reagent and assay conditions are as follows: • BaF3 cells: • Maintained in RPMI containing 10% FBS, 1% PenStrep, 1% NEAA, and 1% L-Glutamine, supplemented with 1 mg/mL G418 and 5% WEHI-CM (or recombinant murine IL-3). • Confluent cells are split 1:50 to 1:100 every 3-4 days. • MV-4-11 cells: • Maintained in Iscove's Modified Dulbecco's Medium containing 10% FBS. • Confluent cells are split 1:4 every 3-4 days. • SKNSH cells: RPMI containing 10% FBS. On day 1, cells are counted, then centrifuged in a conical tube for 5 minutes at 1000 rpm. The supernatant is removed and cells are re-suspended as follows: • BaF3: resuspend in growth media +1 mg/mL G418 (without WEHFIL-3) to 2×10^5 cells/mL. • MV-4-11: resuspend in growth media to 5×10^5 cells/mL. • SKNSH: resuspend in growth media to 2×10^4 cells/mL. The cells are plated (50 μL, 150 μL for SKNSH cells) in each well of a 96-well dish (Corning 3610) and incubated at 37° C. in 5% CO2 overnight, cells plated to a final concentration of cells as follows: • BaF3: 10,000 cells per well. • MV-4-11: 25,000 cells per well. • SKNSH: 3,000 cells per well. On day 2, compound at a maximum concentration of 5 mM is serially diluted 1:3 for a total of 8 point titration with DMSO as a control. A 1 μL aliquot of each dilution point is added to 249 μL growth media and 50 μL is added to a well containing cells, providing 10 μM compound for the maximum concentration point. The cells are incubated for 3 days at 37° C. in 5% CO2. For SKNSH cells, a 0.75 μL aliquot of appropriate dilution in DMSO is added to 150 μL of cells. On day 5, ATPlite 1 step Luminescence Assay System (Perkin Elmer #6016739) is brought to room temperature along with the cell cultures. ATPlite is added to each well as follows: • BaF3: 25 μL per well. • MV-4-11: 40 μL per well. • SKNSH: 20 μL per well. The cells are incubated at room temperature for 10 minutes, then luminescence is read on Safire reader. The measured luminescence correlates directly with cell number, such that the reading as a function of compound concentration is used to determine the IC50 value.
It is understood that the results of these assays may vary as assay conditions are varied. Inhibition levels determined under the conditions described herein represent a relative activity for the compounds tested under the specific conditions employed. The cell based assays are likely to show variability due to the complexity of the system and the sensitivity thereof to any changes in the assay conditions. […] Results for compounds that are tested and show substantially no inhibition below the highest tested concentration are represented as “-” in the tables below. In some instances, the compounds were not tested in all of the assays, or assay results were not valid, as indicated by NA in the tables below.

BCR-KIT BaF3 cells = target: T1, BCR-KIT BaF3 cells (Homo sapiens, UniProt P10721); assay: BaF3 BCR-KIT cell proliferation assay (ATPlite); assay type: cell-based; details: read-out: Inhibition of Cell Proliferation IC50, BCR/BaF3 Kit
T1 construct: fused on or other part: P11274 (Breakpoint cluster region protein)
T1 sequence (P10721 589-937): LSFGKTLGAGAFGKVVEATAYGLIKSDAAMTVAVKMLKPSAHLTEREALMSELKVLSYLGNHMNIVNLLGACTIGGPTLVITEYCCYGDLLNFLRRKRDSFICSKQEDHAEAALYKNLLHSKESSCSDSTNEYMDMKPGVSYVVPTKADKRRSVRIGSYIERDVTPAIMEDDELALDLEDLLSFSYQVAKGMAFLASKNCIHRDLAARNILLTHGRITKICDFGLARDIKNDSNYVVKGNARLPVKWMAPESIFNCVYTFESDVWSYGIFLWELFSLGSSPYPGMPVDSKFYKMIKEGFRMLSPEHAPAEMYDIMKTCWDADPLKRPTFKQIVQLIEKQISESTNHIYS
Summary of the method: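 IL-3-free growth, 3-day compound exposure (8-point 1:3 titration, top 10 μM, DMSO control), 37 °C 5% CO2. BaF3 10,000 or MV-4-11 25,000 cells/well, plated overnight beforehand. Read-out ATPlite luminescence vs concentration → IC50.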

TrkA kinase = TrkA kinase (Homo sapiens, UniProt P04629); assay: TrkA kinase biochemical activity assay (AlphaScreen); details: 100 μM ATP; read-out: Biochemical Inhibition IC50 TrkA
Chain of TrkA kinase (P04629 33-796): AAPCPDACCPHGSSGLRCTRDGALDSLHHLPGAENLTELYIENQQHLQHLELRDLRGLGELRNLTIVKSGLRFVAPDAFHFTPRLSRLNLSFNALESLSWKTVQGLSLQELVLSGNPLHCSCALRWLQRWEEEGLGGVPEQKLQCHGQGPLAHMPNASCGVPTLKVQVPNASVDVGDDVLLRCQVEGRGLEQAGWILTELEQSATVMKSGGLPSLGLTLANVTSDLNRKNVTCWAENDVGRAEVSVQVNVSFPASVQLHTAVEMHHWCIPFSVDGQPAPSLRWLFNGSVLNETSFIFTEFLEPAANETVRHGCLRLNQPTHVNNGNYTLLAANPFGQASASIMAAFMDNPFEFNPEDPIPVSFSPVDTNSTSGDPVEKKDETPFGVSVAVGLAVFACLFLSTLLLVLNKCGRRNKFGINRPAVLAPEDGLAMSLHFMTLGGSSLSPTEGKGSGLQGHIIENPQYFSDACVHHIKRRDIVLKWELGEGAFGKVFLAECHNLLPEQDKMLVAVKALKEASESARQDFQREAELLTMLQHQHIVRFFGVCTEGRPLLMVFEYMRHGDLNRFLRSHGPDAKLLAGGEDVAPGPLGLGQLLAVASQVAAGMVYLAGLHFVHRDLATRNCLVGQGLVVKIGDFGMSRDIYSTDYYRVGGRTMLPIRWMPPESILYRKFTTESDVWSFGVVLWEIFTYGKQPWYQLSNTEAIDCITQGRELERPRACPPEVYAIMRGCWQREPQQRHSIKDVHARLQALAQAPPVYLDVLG
Summary of the method: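 IC50 values come from AlphaScreen PY20/streptavidin bead signal versus compound concentration. Kinase reaction: 1 ng/well TrkA, 100 μM ATP, 30 nM biotin-(E4Y)10 substrate, Mn2+-containing Hepes buffer pH 7.5, 5% DMSO, 40 min, room temperature; TrkC assayed by the same approach.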

Compound | IC50 (SKNSH cells) | IC50 (BCR-KIT BaF3 cells) | IC50 (TrkA kinase)
CC(C)Nc1ncnc2[nH]cc(C(=O)c3ccc(NC4CCCCC4)nc3Cl)c12 [Compound P-4109, [2-chloro-6-(cyclohexylamino)-3-pyridyl]-[4-(isopropylamino)-7H-pyrrolo[2,3-d]pyrimidin-5-yl]methanone] | < 10000 nM | < 1000 nM | < 100 nM
CNc1ncnc2[nH]cc(C(=O)c3ccc(NC4CCCCC4)nc3Cl)c12 [Compound P-4110, [2-chloro-6-(cyclohexylamino)-3-pyridyl]-[4-(methylamino)-7H-pyrrolo[2,3-d]pyrimidin-5-yl]methanone] | < 10000 nM | < 1000 nM | < 1000 nM
Cc1ccc(Nc2ccc(C(=O)c3c[nH]c4ncnc(NCC(F)(F)F)c34)c(F)n2)cn1 [Compound P-4112, [2-fluoro-6-[(6-methyl-3-pyridyl)amino]-3-pyridyl]-[4-(2,2,2-trifluoroethylamino)-7H-pyrrolo[2,3-d]pyrimidin-5-yl]methanone] | < 10000 nM | > 1000 nM | < 100 nM
CCc1ccc(Nc2ccc(C(=O)c3c[nH]c4ncnc(NCC(F)(F)F)c34)c(F)n2)cn1 [Compound P-4120, [6-[(6-ethyl-3-pyridyl)amino]-2-fluoro-3-pyridyl]-[4-(2,2,2-trifluoroethylamino)-7H-pyrrolo[2,3-d]pyrimidin-5-yl]methanone] | < 1000 nM | < 1000 nM | < 100 nM
CCNc1ncnc2[nH]cc(C(=O)c3ccc(Nc4ccc(CC)nc4)nc3F)c12 [Compound P-4123, [4-(ethylamino)-7H-pyrrolo[2,3-d]pyrimidin-5-yl]-[6-[(6-ethyl-3-pyridyl)amino]-2-fluoro-3-pyridyl]methanone] | < 100 nM | < 100 nM | < 10 nM
COc1ccc(Nc2ccc(C(=O)c3c[nH]c4ncnc(NC5CC5)c34)c(F)n2)cn1 [Compound P-4126, [4-(cyclopropylamino)-7H-pyrrolo[2,3-d]pyrimidin-5-yl]-[2-fluoro-6-[(6-methoxy-3-pyridyl)amino]-3-pyridyl]methanone] | < 100 nM | < 100 nM | < 10 nM
Fc1cc(Cc2c[nH]c3ncnc(NC4CC4)c23)cnc1NC1CCC(F)(F)CC1 [Compound P-4127, N-cyclopropyl-5-[[6-[(4,4-difluorocyclohexyl)amino]-5-fluoro-3-pyridyl]methyl]-7H-pyrrolo[2,3-d]pyrimidin-4-amine] | < 10000 nM | < 100 nM | < 100 nM

Results, then the compound that gave them:

IC50 (SKNSH cells) | IC50 (BCR-KIT BaF3 cells) | IC50 (TrkA kinase) | Compound
< 10000 nM | > 1000 nM | < 100 nM | CCCNc1ncnc2[nH]cc(C(=O)c3ccc(Nc4cncc(OC)c4)nc3F)c12 [Compound P-4105, [2-fluoro-6-[(5-methoxy-3-pyridyl)amino]-3-pyridyl]-[4-(propylamino)-7H-pyrrolo[2,3-d]pyrimidin-5-yl]methanone]
< 1000 nM | < 1000 nM | < 10 nM | COc1cncc(Nc2ccc(C(=O)c3c[nH]c4ncnc(NC(C)C)c34)c(F)n2)c1 [Compound P-4106, [2-fluoro-6-[(5-methoxy-3-pyridyl)amino]-3-pyridyl]-[4-(isopropylamino)-7H-pyrrolo[2,3-d]pyrimidin-5-yl]methanone]
< 1000 nM | < 1000 nM | < 10 nM | COc1cncc(Nc2ccc(C(=O)c3c[nH]c4ncnc(NC5CC5)c34)c(F)n2)c1 [Compound P-4107, [4-(cyclopropylamino)-7H-pyrrolo[2,3-d]pyrimidin-5-yl]-[2-fluoro-6-[(5-methoxy-3-pyridyl)amino]-3-pyridyl]methanone]
> 1000 nM | > 1000 nM | < 100 nM | CNc1ncnc2[nH]cc(C(=O)c3ccc(Nc4cncc(OC)c4)nc3F)c12 [Compound P-4108, [2-fluoro-6-[(5-methoxy-3-pyridyl)amino]-3-pyridyl]-[4-(methylamino)-7H-pyrrolo[2,3-d]pyrimidin-5-yl]methanone]
< 1000 nM | < 100 nM | < 10 nM | CCc1ccc(Nc2ccc(C(=O)c3c[nH]c4ncnc(NC)c34)c(F)n2)cn1 [Compound P-4124, [6-[(6-ethyl-3-pyridyl)amino]-2-fluoro-3-pyridyl]-[4-(methylamino)-7H-pyrrolo[2,3-d]pyrimidin-5-yl]methanone]
